For data set [1], the system named is Mycobacterium tuberculosis. Kind of data set: Antimicrobial activity against Mycobacterium tuberculosis Erdman injected into gamma interferon gene knockout C57BL/6 mouse assessed as bacterial load in lung of mouse at 300 mg/kg measured 9 days post drug treatment. It is filed as functional.
For data set [2], the system named is Mycobacterium tuberculosis. Kind of data set: Antimicrobial activity against Mycobacterium tuberculosis Erdman injected into gamma interferon gene knockout C57BL/6 mouse assessed as bacterial load in spleen of mouse at 100 mg/kg measured 9 days post drug treatment. It counts as functional.
Data set [3] deals with Mycobacterium tuberculosis. Kind of data set: Antimicrobial activity against Mycobacterium tuberculosis H37Rv by alamar blue assay. It counts as functional.
Another data set relates to Escherichia coli. Description: Antimicrobial activity against Escherichia coli ATCC 25922 by broth macrodilution method. It is filed as functional.
For data set [4], the system named is Mycobacterium tuberculosis. Description: Antimicrobial activity against Mycobacterium tuberculosis Erdman injected into gamma interferon gene knockout C57BL/6 mouse assessed as bacterial load in lung of mouse at 100 mg/kg measured 9 days post drug treatment. It counts as functional.
The next data set concerns Staphylococcus aureus. Description: Antimicrobial activity against Staphylococcus aureus ATCC 29213 by broth macrodilution method. It is filed as functional.
Data set [5] concerns Mycobacterium tuberculosis. Kind of data set: Antimicrobial activity against Mycobacterium tuberculosis Erdman injected into gamma interferon gene knockout C57BL/6 mouse assessed as bacterial load in spleen of mouse at 300 mg/kg measured 9 days post drug treatment. It is filed as functional.
Another data set has as its system Pseudomonas aeruginosa. Kind of data set: Antimicrobial activity against Pseudomonas aeruginosa ATCC 27853 by broth macrodilution method. It is filed as functional.
The nature of data set [6]: Oral bioavailability in mouse at 300 mg/kg, po measured after 30 mins. It is filed as ADME, organism-based. The settings on record: in vivo, read-out: Drug uptake.
Data set [7] relates to Mycobacterium tuberculosis. Kind of data set: Antimicrobial activity against Mycobacterium tuberculosis H37Rv at assessed as growth inhibition at […] following 24 days oxygen depletion by Wayne method relative to control. Further details: scale not given: the % may be the effect or the level left. It is filed as functional.
Data set [8] deals with Mycobacterium tuberculosis. Description: Antimicrobial activity against Mycobacterium tuberculosis H37Rv by macrodilution method. It counts as functional.
Data set [9] is described as follows: Oral bioavailability in mouse at 300 mg/kg, po measured after 2 hrs. It is filed as ADME, organism-based. The settings on record: in vivo, read-out: Drug uptake.
Data set [10] concerns Mycobacterium tuberculosis. Description: Antimicrobial activity against Mycobacterium tuberculosis Erdman injected into gamma interferon gene knockout C57BL/6 mouse assessed as bacterial load in spleen of mouse at 25 mg/kg measured 9 days post drug treatment. It counts as functional.
Data set [11] in a line: Oral bioavailability in mouse at 25 mg/kg, po measured after 2 hrs. It counts as ADME, organism-based. The settings on record: in vivo, read-out: Drug uptake.
Data set [12] relates to Mycobacterium tuberculosis. Description: Antimicrobial activity against Mycobacterium tuberculosis Erdman injected into gamma interferon gene knockout C57BL/6 mouse assessed as bacterial load in lung of mouse at 25 mg/kg measured 9 days post drug treatment. It is filed as functional.
The nature of data set [13]: Oral bioavailability in mouse at 25 mg/kg, po measured after 30 mins. It is filed as ADME, organism-based. Conditions: in vivo, read-out: Drug uptake.
Setting [14] is: Mycobacterium tuberculosis, H37Rv, read-out: MIC.

The values below come from ChEMBL document CHEMBL1255311, “Evaluation of a 2-pyridone, KRQ-10018, against Mycobacterium tuberculosis in vitro and in vivo” (Antimicrob Agents Chemother, 2008).

In brackets after ≈: the same amount, converted by molar mass. Where only a bound is given, the exact number is not on record here.

Regarding `Cc1c(N2CC3=CCCN[C@H]3C2)c(F)cn2c(=O)c(C(=O)O)cc(C3CC3)c12`, the log10cfu in [1] worked out at 6.13; in data set [2] it was 5.92; in [4], 7.25; in data set [5], 4.91. The MIC in data set [3] (setting [14]) is under 0.025 µg/mL; in the data set on Escherichia coli it was under 0.015 µg/mL; against Staphylococcus aureus, under 0.015 µg/mL; against Pseudomonas aeruginosa it was under 0.015 µg/mL; in data set [8], 0.041 µg/mL (≈ 0.107 µM). In data set [6], the concentration at 0.5 h was over 13100 ng/mL. Moreover, in data set [7], the Activity is 1.7%. Also, the concentration at 2 h in data set [9] worked out at 1640 ng/mL.

`O=C(O)c1cn(C2CC2)c2cc(N3CCNCC3)c(F)cc2c1=O` [CIPROFLOXACIN]: the Activity in [7] is recorded as 83%.

For `COc1c(N2CCNC(C)C2)c(F)cc2c(=O)c(C(=O)O)cn(C3CC3)c12` (configuration not stated) [GATIFLOXACIN], the Activity in data set [7] is listed as 41%.

Take `NNC(=O)c1ccncc1` [ISONIAZID]: the log10cfu in data set [10] is on record as 3.14; in [12], 5.8. In addition, in [11], the concentration at 2 h was 1640 ng/mL. Also, the MIC was found to be 0.041 µg/mL (≈ 0.299 µM) in data set [3] and 0.048 µg/mL (≈ 0.35 µM) in data set [3] (setting [14]). In addition, the concentration at 0.5 h in [13] was over 13100 ng/mL. Further, in [7], the Activity worked out at 70%.

Turning to `Cc1ncc([N+](=O)[O-])n1CCO` [METRONIDAZOLE], the Activity in data set [7] is reported as 36%.

In the case of `COc1c(N2C[C@@H]3CCCN[C@@H]3C2)c(F)cc2c(=O)c(C(=O)O)cn(C3CC3)c12` [MOXIFLOXACIN], the results for the log10cfu in [1] and in [5] were 2.37 and 2.43, respectively. For the same compound, the MIC was 0.1 µg/mL (≈ 0.249 µM) in [3] and 0.12 µg/mL (≈ 0.299 µM) in [3] (setting [14]). For the same compound, the concentration at 0.5 h in data set [6] was determined as 19600 ng/mL. Besides, in [7], the Activity was determined as 2.5%. For the same compound, the concentration at 2 h in data set [9] was 9600 ng/mL.

Consider `CO[C@H]1/C=C/O[C@@]2(C)Oc3c(C)c(O)c4c(O)c(c(/C=N/N5CCN(C)CC5)c(O)c4c3C2=O)NC(=O)/C(C)=C\C=C\[C@H](C)[C@H](O)[C@@H](C)[C@@H](O)[C@@H](C)[C@H](OC(C)=O)[C@@H]1C` [RIFAMPIN], for which the Activity in [7] came out at 5.6%.

With `CO[C@H]1/C=C/O[C@@]2(C)Oc3c(C)c(O)c4c(O)c(c(/C=N/N5CCN(C6CCCC6)CC5)c(O)c4c3C2=O)NC(=O)/C(C)=C\C=C\[C@H](C)[C@H](O)[C@@H](C)[C@@H](O)[C@@H](C)[C@H](OC(C)=O)[C@@H]1C` [RIFAPENTINE], the Activity in data set [7] is listed as 2.5%.

Regarding `CN[C@@H]1[C@H](O[C@H]2[C@H](O[C@H]3[C@H](O)[C@@H](O)[C@H](N=C(N)N)[C@@H](O)[C@@H]3N=C(N)N)O[C@@H](C)[C@]2(O)C=O)O[C@@H](CO)[C@H](O)[C@H]1O` [STREPTOMYCIN], the Activity in [7] turned out to be 4.2%.
